How the values were obtained:
[1] = target: T1, 1321N1-hP2X3 receptor (Homo sapiens, UniProt P56373); experiment: Calcium ion mobility (FLIPR) in cells stably expressing 1321N1-hP2X3 receptors; assay type: cell-based; details: calcium signal, agonist at EC80
T1 construct: host or cells: 1321N1
T1 sequence (P56373 1-397): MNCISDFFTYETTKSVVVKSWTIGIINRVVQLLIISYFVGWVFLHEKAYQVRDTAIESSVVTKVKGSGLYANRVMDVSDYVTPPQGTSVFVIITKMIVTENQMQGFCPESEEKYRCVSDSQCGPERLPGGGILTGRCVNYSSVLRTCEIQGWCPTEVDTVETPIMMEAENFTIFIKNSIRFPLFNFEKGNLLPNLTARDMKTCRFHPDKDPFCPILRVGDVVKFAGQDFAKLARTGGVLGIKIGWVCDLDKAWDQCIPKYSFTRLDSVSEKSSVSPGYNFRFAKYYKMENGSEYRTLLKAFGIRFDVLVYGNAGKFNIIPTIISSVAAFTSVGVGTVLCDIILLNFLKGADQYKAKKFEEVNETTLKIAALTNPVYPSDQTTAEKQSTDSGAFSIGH
Description: Test Example 1. Determination of the Effect of the Compounds of the Present Invention on Calcium Ion Mobility in Cells Stably Expressing 1321N1-hP2X3 Receptors
To determine the inhibitory activity of the compounds on 1321N1-hP2X3 receptor.
Stably transfected cell line: 1321N1-hP2X3 (supplied by Shanghai ChemPartner Chemical Research Co., Ltd.).
(§1) Assay buffer: 1*HBSS+20 mM HEPES;
Cell culture medium: DMEM+10% FBS+75 µg/mL Hygromycin B+300 µg/mL G418;
(§2) Plating medium: DMEM+10% DPBS;
(§3) 0.5*Dye: 10*Dye stock+1.25 Probenecid+1*assay buffer+0.5 U/mL ATP hydrolytic enzyme;
(§4) 2. The cells were cultured to 70%-90% confluency in the cell culture medium at 37° C., 5% CO2. The medium was discarded, and the cells were added with 2 mL of Versene, and the cells were placed in an incubator at 37° C. for 2 to 5 min. The cells were collected by addition of 10 mL of plating medium and counted. The cells were seeded to the 384-well assay plate by addition of 50 μL solution (a density of 1×10^4 cells/well) to each well, and incubated for 16 to 24 hours (at least overnight).
(§5) 3. The medium was discarded, and 30 μL of 1× dye was added. The cells were incubated at 37° C. in the dark for 60 min.
(§6) 4. The compound powder was dissolved in DMSO to obtain a 20 mM stock solution. 180× compound with required concentration was formulated, and diluted in gradient for concentration points.
(§7) 5. Preparation of compound plate: 500 nL of 180× compound was transferred to the compound plate (source plate for FLIPR) using ECHO. 30 μL of assay buffer was added to each well, and the plate was shaken gently for 20 to 40 minutes.
(§8) 6. Determination: 15 μL of 3× compound was taken from each well and added to the cell plate. The samples were added by FLIPR instrument, and the calcium signals were detected. After 15 minutes, 22.5 μL of 3× agonist (EC80 concentration) was added to each well and the calcium signals were detected.
(§9) The calcium signal values were determined by FLIPR. The ratio of the 340/510 nm wavelength signals to 380/510 nm wavelength signals was used as the calculated results for each sampling time point in the experiment. The calculation of maximum minus minimum was derived from the ratio signal curve.
(§10) The percent inhibition rate and ten-point concentration data were fitted to the parametric nonlinear logistic equation by using GraphPad prism to calculate the IC50 values of the compounds.

[2] = target: T2, 1321N1-hP2X2/3 receptor (Homo sapiens, UniProt P56373+Q9UBL9); experiment: Calcium ion mobility (FLIPR) in cells stably expressing 1321N1-hP2X2/3 receptors; assay type: cell-based; details: calcium signal, agonist at EC80
T2 construct: host or cells: 1321N1
T2 sequence (P56373 1-397): T1 sequence (P56373 1-397)
T2 sequence (Q9UBL9 1-471): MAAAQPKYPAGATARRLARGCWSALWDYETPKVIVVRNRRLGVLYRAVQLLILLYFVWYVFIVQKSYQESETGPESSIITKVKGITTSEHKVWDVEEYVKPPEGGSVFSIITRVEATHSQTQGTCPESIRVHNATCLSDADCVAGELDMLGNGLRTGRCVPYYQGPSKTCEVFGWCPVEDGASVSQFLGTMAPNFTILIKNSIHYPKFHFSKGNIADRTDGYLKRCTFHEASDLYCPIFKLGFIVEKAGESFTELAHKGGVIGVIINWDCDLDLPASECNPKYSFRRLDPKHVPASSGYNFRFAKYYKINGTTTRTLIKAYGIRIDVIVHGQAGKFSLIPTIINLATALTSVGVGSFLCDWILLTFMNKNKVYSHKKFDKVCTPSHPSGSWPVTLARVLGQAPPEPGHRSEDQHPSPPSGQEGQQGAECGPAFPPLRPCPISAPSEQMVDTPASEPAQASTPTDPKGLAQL
Description: Test Example 2. Determination of the Effect of the Compounds of the Present Invention on Calcium Ion Mobility in Cells Stably Expressing 1321N1-hP2X2/3 Receptors
To determine the inhibitory activity of the compounds on 1321N1-hP2X2/3 receptor.
Stably transfected cell line: 1321N1-hP2X2/3 (supplied by Shanghai ChemPartner Chemical Research Co., Ltd.).
as §1
Cell culture medium: DMEM+10% FBS+75 μg/mL Hygromycin B+150 μg/mL G418;
as §2, §3, §4, §5, §6, §7, §8, §9, §10

[3] = tested on: P2X3/P2X2/3; details: background; cited from earlier work
[4] = clinical stage; cited from earlier work
[5] = Pharmacokinetic assay in Balb/C mice; assay type: in vivo; details: male, mouse, po, p.o. 5 mg/kg, plasma, 0.5% CMC-Na (1% Tween 80)
Description: Test Example 3. Pharmacokinetic Assay in Balb/C Mice
Balb/C mice were used as test animals. The pharmacokinetic behavior of the compounds of Examples was studied in mouse body (plasma) by orally administration at a dose of 5 mg/kg.
Male Balb/C mice (6 mice per group), purchased from Shanghai Jiesijie Laboratory Animal Co., LTD, with Certificate No.: SCXK (Shanghai) 2013-0006 N0.311620400001794.
5 g of hydroxyethyl cellulose (HEC, CMC-Na, viscosity: 800-1200 Cps) was weighed and dissolved in 1000 mL of purified water, followed by addition of 10 g of Tween80.
After an overnight fast, male Balb/C mice were administered p.o. with the test compound at a dose of 5 mg/kg and a volume of 10 mL/kg.
0.04 mL of blood was taken from the orbit of the mouse before administration and at 0, 0.5, 1, 2, 4, 6, 8 and 24 hours after administration. The samples were stored in EDTA-K2 tubes, and centrifuged for 6 minutes at 4° C., 6000 rpm to separate the plasma. The plasma samples were stored at −80° C.
1) 160 μL of acetonitrile was added to 20 μL of the plasma sample for precipitation, and then the mixture was centrifuged at 3500×g for 5 to 20 minutes. 2) After the above process, 100 μL of the supernatant was taken to analyze the concentration of the test compound by LC/MS/MS.
2.7 Liquid Chromatography Analysis • Liquid chromatography condition: Shimadzu LC-20AD pump • Mass spectrometry condition: AB Sciex API 4000 mass spectrometer • Chromatographic column: phenomenex Gemiu 5 um C18 50×4.6 mm • Mobile phase: Eluent A was 0.1% formic acid in water, and Eluent B was acetonitrile • Flow rate: 0.8 mL/min • Elution time: 0-4.0 minutes the eluent is as follows:
The main parameters of pharmacokinetics were calculated by WinNonlin 8.2.

| SMILES | IC50 [1] [nM] | IC50 [2] [nM] | also measured |
| --- | --- | --- | --- |
| CC(C)c1cc2n(CC(=O)Nc3ccc(F)cn3)c(=O)c3ccc(C(F)(F)F)nc3n2n1 [Example 36, N-(5-Fluoropyridin-2-yl)-2-(2-isopropyl-5-oxo-8-(trifluoromethyl)pyrazolo[1,5-a]pyrido[3,2-e]pyrimidin-4(5H)-yl)acetamide] | 185 |  |  |
| O=C(Cn1c(=O)c2ccc(C(F)(F)F)nc2n2nc(Cl)cc12)Nc1ccc(F)cn1 [Example 79, 2-(2-Chloro-5-oxo-8-(trifluoromethyl)pyrazolo[1,5-a]pyrido[3,2-e]pyrimidin-4(5H)-yl)-N-(5-fluoropyridin-2-yl)acetamide] | 34.7 |  |  |
| O=C(Cn1c(=O)c2ccc(C(F)(F)F)nc2n2nc(C3CC3)cc12)Nc1ccc(F)cn1 [Example 35, 2-(2-Cyclopropyl-5-oxo-8-(trifluoromethyl)pyrazolo[1,5-a]pyrido[3,2-e]pyrimidin-4(5H)-yl)-N-(5-fluoropyridin-2-yl)acetamide] | 77.7 | > 30000 |  |
| O=C(Cn1c(=O)c2ccc(C(F)(F)F)nc2n2nc(C(F)(F)F)cc12)Nc1ccc(F)cn1 [Example 66, N-(5-Fluoropyridin-2-yl)-2-(5-oxo-2,8-bis(trifluoromethyl)pyrazolo[1,5-a]pyrido[3,2-e]pyrimidin-4(5H)-yl)acetamide] | 130 |  |  |
| COc1cc(C(C)C)c(Oc2cnc(N)nc2N)cc1S(N)(=O)=O [MK-7264] |  |  | selectivity to P2X3/P2X2/3 [3]: low selectivity; side effects [4]: loss of taste |
| CC1(c2cc3n(CC(=O)Nc4ccc(F)cn4)c(=O)c4ccc(C(F)(F)F)nc4n3n2)CC1 [Example 59, N-(5-Fluoropyridin-2-yl)-2-(2-(1-methylcyclopropyl)-5-oxo-8-(trifluoromethyl)pyrazolo[1,5-a]pyrido[3,2-e]pyrimidin-4(5H)-yl)acetamide] | 259 | 32200 |  |
| O=C(Cn1c(=O)c2ccc(C(F)(F)F)nc2n2nc(C(=O)N3CCC3)cc12)Nc1ccc(F)cn1 [Example 74, 2-(2-(Azetidine-1-carbonyl)-5-oxo-8-(trifluoromethyl)pyrazolo[1,5-a]pyrido[3,2-e]pyrimidin-4(5H)-yl)-N-(5-fluoropyridin-2-yl)acetamide] | 203 |  |  |
| Cc1cc(-c2cc3n(CC(=O)Nc4ccc(F)cn4)c(=O)c4cccnc4n3n2)c(C)cn1 [Example 21] | 305 |  |  |
| Cc1cnccc1-c1cc2n(CC(=O)Nc3ccc(F)cn3)c(=O)c3ccc(C(F)(F)F)nc3n2n1 [Example 63, N-(5-Fluoropyridin-2-yl)-2-(2-(3-methylpyridin-4-yl)-5-oxo-8-(trifluoromethyl)pyrazolo[1,5-a]pyrido[3,2-e]pyrimidin-4(5H)-yl)acetamide] | 238 |  |  |
| O=C(Cn1c(=O)c2ccc(C(F)(F)F)nc2n2nc(C3CCCCC3)cc12)Nc1ccc(F)cn1 [Example 62, 2-(2-Cyclohexyl-5-oxo-8-(trifluoromethyl)pyrazolo[1,5-a]pyrido[3,2-e]pyrimidin-4(5H)-yl)-N-(5-fluoropyridin-2-yl)acetamide] | 385 |  |  |
| O=C(Cn1c(=O)c2ccc(C(F)(F)F)nc2n2nccc12)Nc1ccc(Cl)cn1 [Example 83, N-(5-Chloropyridin-2-yl)-2-(5-oxo-8-(trifluoromethyl)pyrazolo[1,5-a]pyrido[3,2-e]pyrimidin-4(5H)-yl)acetamide] | 137 | > 30000 |  |
| Cc1ncccc1-c1cc2n(CC(=O)Nc3ccc(F)cn3)c(=O)c3ccc(C(F)(F)F)nc3n2n1 [Example 64, N-(5-Fluoropyridin-2-yl)-2-(2-(2-methylpyridin-3-yl)-5-oxo-8-(trifluoromethyl)pyrazolo[1,5-a]pyrido[3,2-e]pyrimidin-4(5H)-yl)acetamide] | 149 |  |  |
| CC(C)(C)c1cc2n(CC(=O)Nc3ccc(F)cn3)c(=O)c3ccc(C(F)(F)F)nc3n2n1 [Example 30, 2-(2-(Tert-butyl)-5-oxo-8-(trifluoromethyl)pyrazolo[1,5-a]pyrido[3,2-e]pyrimidin-4(5H)-yl)-N-(5-fluoropyridin-2-yl)acetamide] | 88.2 | 14500 | AUC(0-t) ([5]; read-out: Area under curve AUC0-t): 10900 ng·h/mL; MRT inf ([5]; read-out: Average residence time MRT0-∞): 2.16 h; half-life ([5]; read-out: Half life t1/2 (converted)): 1.36 h; Tmax ([5]; read-out: Peak time tmax): 0.5 h; Cmax ([5]; read-out: Plasma concentration Cmax): 3550 ng/mL |
| O=C(Cn1c(=O)c2ccc(C(F)(F)F)nc2n2nc(C3CCCC3)cc12)Nc1ccc(F)cn1 [Example 37, 2-(2-Cyclopentyl-5-oxo-8-(trifluoromethyl)pyrazolo[1,5-a]pyrido[3,2-e]pyrimidin-4(5H)-yl)-N-(5-fluoropyridin-2-yl)acetamide] | 337 |  |  |
| CC(C)(C)c1cc2n(CC(=O)Nc3ccc(F)cn3)c(=O)c3cccnc3n2n1 [Example 1, 2-(2-(Tert-butyl)-5-oxopyrazolo[1,5-a]pyrido[3,2-e]pyrimidin-4(5H)-yl)-N-(5-fluoropyridin-2-yl)acetamide] | 16.2 | 64400 |  |
| Cc1cc(-c2cc3n(CC(=O)Nc4ccc(F)cn4)c(=O)c4ccc(C(F)(F)F)nc4n3n2)c(C)cn1 [Example 40] | 292 | 16700 |  |
